Row | melting point | SMILES
1 | 151 to 152 °C | Clc1ccc(Oc2cncc3sc(-c4ncon4)cc23)cc1 (hydrate or solvate) [Example 287, 4-(4-Chlorophenoxy)-2-(1,2,4-oxadiazol-3-yl)thieno[2,3-c]pyridine]
2 | 268 to 270 °C | Nc1nc(-c2cc3c(Oc4ccc(Cl)cc4)cncc3s2)no1 (hydrate or solvate) [Example 289, 3-[4-(4-Chlorophenoxy)thieno[2,3-c]pyridin-2-yl]-1,2,4-oxadiazol-5-amine]
3 | 103 to 107 °C | Cc1ccc(Sc2ncnc3c(C)csc23)cc1 [Example 11, 7-methyl-4-[(4-methylphenyl)thio]thieno[3,2-d]pyrimidine]
4 | 163 to 166 °C | CSc1nnc(Sc2ncnc3c(C)csc23)s1 [Example 13, 7-methyl-4-[[5-(methylthio)-1,3,4-thiadiazol-2-yl]thio]thieno[3,2-d]pyrimidine]
5 | 221 to 223 °C | Cc1csc2c(Sc3nnc(N)s3)ncnc12 [Example 14, 4-[(5-amino-1,3,4-thiadiazol-2-yl)thio]-7-methylthieno[3,2-d]pyrimidine]
6 | 200 to 203 °C | CONC(=O)c1cc2c(Sc3ccc(C)cc3)cncc2s1 [Example 23, N-methoxy-4-[(4-methylphenyl)thio]thieno[2,3-c]pyridine-2-carboxamide]
7 | 208 to 211 °C | Cc1ccc(Sc2cncc3sc(C(=O)Nc4ccc(Cl)cc4)cc23)cc1 [Example 24, N-(4-chlorophenyl)-4-[(4-methylphenyl)thio]thieno[2,3-c]pyridine-2-carboxamide]
8 | 127 to 133 °C | Cc1ccc(Sc2cncc3sc(C=NOCc4ccccc4)cc23)cc1 [Example 27, 4-[(4-methylphenyl)thio]thieno[2,3-c]pyridine-2-carboxaldehyde, O-(phenylmethyl)oxime]
9 | 227 to 230 °C | Cc1ccc(Sc2cncc3sc(C=NOCC(=O)O)cc23)cc1 [Example 28, 2-[[[4-[(4-methylphenyl)thio]thieno[2,3-c]pyridin-2-ylmethylene]amino]oxy]acetic acid]
10 | 209 to 210 °C | Cc1ccc(Sc2cncc3sc(C=NO)cc23)cc1 [Example 30, 4-[(4-methylphenyl)thio]thieno[2,3-c]pyridine-2-carboxaldehyde, oxime]
11 | 94 to 95 °C | Cc1ccc(Sc2cncc3sccc23)cc1 [Example 42, 4-[(4-methylphenyl)thio]thieno[2,3-c]pyridine]
12 | 171 to 173 °C | Cc1cccc(Sc2cncc3sc(C(N)=O)cc23)c1 [Example 49, 4-[(3-methylphenyl)thio]thieno[2,3-c]pyridine-2-carboxamide]
13 | 192 to 194 °C | Cc1ccc(Sc2cncc3sc(C(N)=O)cc23)cc1C [Example 50, 4-[(3,4-dimethylphenyl)thio]thieno[2,3-c]pyridine-2-carboxamide]
14 | 219 to 221 °C | COc1ccc(Sc2cncc3sc(C(N)=O)cc23)cc1 [Example 56, 4-[(4-methoxyphenyl)thio]thieno[2,3-c]pyridine-2-carboxamide]
15 | 176 to 178 °C | NC(=O)/C=C/c1cc2c(Oc3ccc(Cl)cc3)cncc2s1 [Example 92, (E)-3-[4-(4-chlorophenoxy)thieno[2,3-c]pyridin-2-yl]-2-propenamide]

Second part, the compound before the results:

Row | SMILES | melting point
16 | O=C(NCCCl)c1cc2c(Oc3ccc(Cl)cc3)cncc2s1 | 60 to 62 °C (dec.)
17 | CCc1cc2c(Sc3ccc(C)cc3)ncnc2s1 [Example 2, 6-ethyl-4-[(4-methylphenyl)thio]thieno[2,3-d]pyrimidine] | 56 to 58 °C
18 | CCc1cc2c(Sc3ccccn3)ncnc2s1 [Example 3, 6-ethyl-4-(2-pyridinylthio)thieno[2,3-d]pyrimidine] | 76.5 to 79 °C
19 | CCc1cc2c(SCc3ccccc3)ncnc2s1 [Example 5, 6-ethyl-4-[(phenylmethyl)thio]thieno[2,3-d]pyrimidine] | 54 to 60 °C
20 | CCc1cc2c(Sc3nnc(C)s3)ncnc2s1 [Example 6, 6-ethyl-4-[(5-methyl-1,3,4-thiadiazol-2-yl)thio]thieno[2,3-d]pyrimidine] | 132 to 135 °C
21 | CCOC(=O)C1(CC)Cc2c(Sc3ccc(C)cc3)ncnc2S1 (centres unmarked) [Example 7, ethyl 6-ethyl-4-[(4-methylphenyl)thio]thieno[2,3-d]pyrimidine-6-carboxylate] | 87.5 to 90 °C
22 | CCc1cc2c(Nc3nnc(C)s3)ncnc2s1 [Example 9, 6-ethyl-N-(5-methyl-1,3,4-thiadiazol-2-yl)thieno[2,3-d]pyrimidin-4-amine] | 277 to 280 °C
23 | CON(C)C(=O)c1cc2c(Sc3ccc(C)cc3)cncc2s1 [Example 22, N-methoxy-N-methyl-4-[(4-methylphenyl)thio]thieno[2,3-c]pyridine-2-carboxamide] | 103 to 107 °C
24 | CON=Cc1cc2c(Sc3ccc(C)cc3)cncc2s1 [Example 26, 4-[(4-methylphenyl)thio]thieno[2,3-c]pyridine-2-carboxaldehyde, O-methyloxime] | 95 to 98 °C
25 | Cc1ccc(Sc2cncc3sc(C=NOc4ccccc4)cc23)cc1 [Example 29, 4-[(4-methylphenyl)thio]thieno[2,3-c]pyridine-2-carboxaldehyde, O-phenyloxime] | 94 to 97 °C
26 | Cc1ccc(Sc2cncc3sc(C=NOCC(N)=O)cc23)cc1 [Example 31, 2-[[[4-[(4-methylphenyl)thio]thieno[2,3-c]pyridine-2-ylmethylene]amino]oxy]acetamide] | 152 to 156 °C
27 | CC(=O)c1cc2c(Sc3ccc(C)cc3)cncc2s1 [Example 33, 1-[4-[(4-methylphenyl)thio]thieno[2,3-c]pyridin-2-yl]ethanone] | 134 to 138 °C
28 | Cc1ccc(Sc2cncc3sc(C(=O)c4ccccc4)cc23)cc1 [Example 34, 2-benzoyl-4-[(4-methylphenyl)thio]thieno[2,3-c]pyridine] | 103 to 107 °C
29 | CC(=NO)c1cc2c(Sc3ccc(C)cc3)cncc2s1 [Example 36, 1-[4-[(4-methylphenyl)thio]thieno[2,3-c]pyridin-2-yl]ethanone, oxime] | 209 to 213 °C
30 | Cc1ccc(Sc2cncc3sc(C(=O)NCC(O)CO)cc23)cc1 (centres unmarked) [Example 37, N-(2,3-dihydroxypropyl)-4-[(4-methylphenyl)thio]thieno[2,3-c]pyridine-2-carboxamide] | 120 to 122 °C
31 | Cc1ccc(Sc2cncc3sc(C(N)=S)cc23)cc1 [Example 41, 4-[(4-methylphenyl)thio]thieno[2,3-c]pyridine-2-carbothioamide] | 181 to 183 °C
32 | Cc1ccccc1Sc1cncc2sc(C(N)=O)cc12 [Example 48, 4-[(2-methylphenyl)thio]thieno[2,3-c]pyridine-2-carboxamide] | 170 to 172 °C
33 | Cc1cc(C)cc(Sc2cncc3sc(C(N)=O)cc23)c1 [Example 51, 4-[(3,5-dimethylphenyl)thio]thieno[2,3-c]pyridine-2-carboxamide] | 177 to 179 °C
34 | Cc1ccc(Sc2cncc3sc(C(N)=O)cc23)c(C)c1 [Example 52, 4-[(2,4-dimethylphenyl)thio]thieno[2,3-c]pyridine-2-carboxamide] | 193 to 195 °C
35 | NC(=O)c1cc2c(SC3CCCCC3)cncc2s1 [Example 57, 4-(cyclohexylthio)thieno[2,3-c]pyridine-2-carboxamide] | 205 to 207 °C
